Data from patent US11261201B2 (priority 2018, dated 2022).
Values after ≈ are worked out from the molar mass of the structure shown. Counter-ions that a name gives are not always drawn. Like-named read-outs stand apart in the source and are kept apart here.

Assays:
A. baumannii = assay: Gram negative MIC protocol (OD600, LB, 24 h); conditions: Acinetobacter baumannii, read-out: MIC A. baumannii LB Media, A. baumannii, LB media, 24 h, OD600
Description: (§1) Overnight bacterial cultures were grown in LB with no added antibiotics at 37° C. with shaking. A 1:1000 dilution of these cultures into LB was exposed to concentration gradients of compounds in 96-well plates (100 μL per well assay volume). Resulting plates were incubated at 37° C. for 24 h without shaking, and OD600 was measured at the end of the incubation. MICs were determined as the lowest concentrations at which OD600 remained at baseline.

E. coli = assay: Gram negative MIC protocol (OD600, LB, 24 h); conditions: Escherichia coli
Description: as §1

H37RvMA = assay: Tuberculosis Alamar Blue/Resazurin assay (MIC); assay type: cell-based; conditions: Mycobacterium tuberculosis, H37RV, WT H37Rv MTB; read-out: WT H37Rv MTB Activity
[1] = read-out: MIC E. coli delta-TolC LB Media, E. coli delta-TolC, LB media, OD600
[2] = read-out: MIC WT E. coli LB Media, WT E. coli, LB media, OD600

SMILES | MIC (A. baumannii) | MIC (E. coli; [1]) | MIC (E. coli; [2]) | MIC (H37RvMA)
O=C1Cc2ccccc2CN1CCC1CCCC1 [B427, 2-(2-cyclopentylethyl)-1,4-dihydroisoquinolin-3(2H)-one] | > 150 µM | > 150 µM | > 150 µM | 2.7 µM (≈ 0.657 µg/mL)
CC(C)C[C@H](N)C(=O)NS(=O)(=O)Cc1ccccc1CNC(C)CC1CCCCC1 (stereo partly drawn) [B428, (2S)-2-amino-N-((2-(((1-cyclohexylpropan-2-yl)amino)methyl)benzyl)sulfonyl)-4-methylpentanamide dihydrochloride] | > 150 µM | 55 µM | > 150 µM | > 150 µM
CC(CC1CCCCC1)NCc1ccccc1OCCc1ccccc1F (stereo not drawn) [B429, 1-cyclohexyl-N-(2-(2-fluorophenethoxy)benzyl)propan-2-amine] | 33 µM (≈ 12.2 µg/mL) | 2 µM (≈ 0.739 µg/mL) | 55 µM (≈ 20.3 µg/mL) | 20.2 µM (≈ 7.46 µg/mL)
O=C1Cc2ccccc2CN1CCC1CCOCC1 [B430, 2-(2-(tetrahydro-2H-pyran-4-yl)ethyl)-1,4-dihydroisoquinolin-3(2H)-one] | > 150 µM | > 150 µM | > 150 µM | 55.1 µM (≈ 14.3 µg/mL)
CC(CC1CCCCC1)NCc1ccccc1CS(=O)(=O)NCC(O)CO (stereo not drawn) [B431, 1-(2-(((1-cyclohexylpropan-2-yl)amino)methyl)phenyl)-N-(2,3-dihydroxypropyl) methanesulfonamide] | > 150 µM | 4 µM (≈ 1.59 µg/mL) | 150 µM (≈ 59.8 µg/mL) | > 150 µM
CC(CC1CCCCC1)NCc1ccccc1CS(=O)(=O)NC1CCN(C)CC1 (stereo not drawn) [B432, 1-(2-(((1-cyclohexylpropan-2-yl)amino)methyl)phenyl)-N-(1-methylpiperidin-4-yl)methanesulfonamide] | > 150 µM | 33 µM (≈ 13.9 µg/mL) | 150 µM (≈ 63.2 µg/mL) | > 150 µM
CC(CC1CCCCC1)NCc1ccccc1CS(=O)(=O)NCC1CCCO1 (stereo not drawn) [B433, 1-(2-(((1-cyclohexylpropan-2-yl)amino)methyl)phenyl)-N-((tetrahydrofuran-2-yl)methyl)methanesulfonamide] | 150 µM (≈ 61.3 µg/mL) | 3 µM (≈ 1.23 µg/mL) | 150 µM (≈ 61.3 µg/mL) | > 150 µM
COCCNS(=O)(=O)Cc1ccccc1CNC(C)CC1CCCCC1 (stereo not drawn) [B434, 1-(2-(((1-cyclohexylpropan-2-yl)amino)methyl)phenyl)-N-(2-methoxyethyl) methanesulfonamide] | 150 µM (≈ 57.4 µg/mL) | 4 µM (≈ 1.53 µg/mL) | 150 µM (≈ 57.4 µg/mL) | > 150 µM
COC(=O)Cn1ccc2cccc(CNC(C)CC3CCCCC3)c21 (stereo not drawn) [B435, methyl 2-(7-(((1-cyclohexylpropan-2-yl)amino)methyl)-1H-indol-1-yl)acetate hydrochloride] | > 150 µM | 150 µM | > 150 µM | > 150 µM
CC(CC1CCCCC1)NCc1cccc2ccn(CC(=O)O)c12 (stereo not drawn) [B436, 2-(7-(((1-cyclohexylpropan-2-yl)amino)methyl)-1H-indol-1-yl)acetic acid hydrochloride] | > 150 µM | 91 µM | > 150 µM | > 150 µM
CC(CC1CCCCC1)NCc1ccccc1CS(=O)(=O)N(C)C (stereo not drawn) [B437, 1-(2-(((1-cyclohexylpropan-2-yl)amino)methyl)phenyl)-N,N-dimethylmethane sulfonamide] | > 150 µM | 4 µM (≈ 1.41 µg/mL) | 150 µM (≈ 52.9 µg/mL) | > 150 µM
CC(CC1CCCCC1)NCc1ccccc1CS(=O)(=O)N(C)C[C@H](O)CO (stereo partly drawn) [B438, 1-(2-(((1-cyclohexylpropan-2-yl)amino)methyl)phenyl)-N-((S)-2,3-dihydroxypropyl)-N-methylmethanesulfonamide] | > 150 µM | 7 µM (≈ 2.89 µg/mL) | 150 µM (≈ 61.9 µg/mL) | > 150 µM
CC(CC1CCCCC1)NCc1ccccc1CS(=O)(=O)N1CCN(C)CC1 (stereo not drawn) [B439, 1-cyclohexyl-N-(2-(((4-methylpiperazin-1-yl)sulfonyl)methyl)benzyl)propan-2-amine] | 150 µM (≈ 61.1 µg/mL) | 12 µM (≈ 4.89 µg/mL) | 91 µM (≈ 37.1 µg/mL) | > 150 µM
COC(=O)Cc1cccc(CNCCC2CCCCC2)c1 [B440, methyl 2-(3-(((2-cyclohexylethyl)amino)methyl)phenyl)acetate] | > 150 µM | > 150 µM | > 150 µM | 150 µM (≈ 43.4 µg/mL)
CC(CC1CCCCC1)NCc1cccc2ccn(C)c12 (stereo not drawn) [B441, 1-cyclohexyl-N-((1-methyl-1H-indol-7-yl)methyl)propan-2-amine hydrochloride] | > 150 µM | 91 µM | > 150 µM | 33.4 µM
CC(CC1CCCCC1)NCc1cccc2ccn(CCO)c12 (stereo not drawn) [B442, 2-(7-(((1-cyclohexylpropan-2-yl)amino)methyl)-1H-indol-1-yl)ethan-1-ol hydrochloride] | > 150 µM | 150 µM | > 150 µM | 150 µM
CNS(=O)(=O)Cc1ccccc1CNC(C)CC1CCCCC1 (stereo not drawn) [B445, 1-(2-(((1-cyclohexylpropan-2-yl)amino)methyl)phenyl)-N-methylmethanesulfonamide] | 150 µM (≈ 50.8 µg/mL) | 4 µM (≈ 1.35 µg/mL) | 55 µM (≈ 18.6 µg/mL) | > 150 µM

SMILES | MIC (A. baumannii) | MIC (E. coli; [1]) | MIC (E. coli; [2]) | MIC (H37RvMA)
CCNS(=O)(=O)Cc1ccccc1CNC(C)CC1CCCCC1 (stereo not drawn) [B446, 1-(2-(((1-cyclohexylpropan-2-yl)amino)methyl)phenyl)-N-ethylmethanesulfonamide] | > 150 µM | 7 µM (≈ 2.47 µg/mL) | 91 µM (≈ 32.1 µg/mL) | > 150 µM
CC(CC1CCCCC1)NCc1ccccc1CS(=O)(=O)NCC(=O)O (stereo not drawn) [B448, ((2-(((1-cyclohexylpropan-2-yl)amino)methyl)benzyl)sulfonyl)glycine] | > 150 µM | > 150 µM | > 150 µM | > 150 µM
CC(CC1CCCCC1)NCc1ccccc1CS(=O)(=O)NC(=O)NC1CCCCC1 (stereo not drawn) [B449, N-(cyclohexylcarbamoyl)-1-(2-(((1-cyclohexylpropan-2-yl)amino)methyl)phenyl) methanesulfonamide] | > 150 µM | 12 µM (≈ 5.4 µg/mL) | > 150 µM | > 150 µM
CC1CCC(NC(=O)NS(=O)(=O)Cc2ccccc2CNC(C)CC2CCCCC2)CC1 (stereo not drawn) [B450, 1-(2-(((1-cyclohexylpropan-2-yl)amino)methyl)phenyl)-N-((4-methylcyclohexyl)carbamoyl)methanesulfonamide] | > 150 µM | 150 µM (≈ 69.6 µg/mL) | > 150 µM | 150 µM (≈ 69.6 µg/mL)
CC(CC1CCCCC1)NCc1ccccc1CCS(N)(=O)=O (stereo not drawn) [B451, 2-(2-(((1-cyclohexylpropan-2-yl)amino)methyl)phenyl)ethane-1-sulfonamide] | 150 µM (≈ 50.8 µg/mL) | 4 µM (≈ 1.35 µg/mL) | 55 µM (≈ 18.6 µg/mL) | > 150 µM
CC(CC1CCCCC1)NCc1ccccc1CS(=O)(=O)NCC(=O)NCC(=O)O (stereo not drawn) [B452, ((2-(((1-cyclohexylpropan-2-yl)amino)methyl)benzyl)sulfonyl)glycylglycine] | > 150 µM | > 150 µM | > 150 µM | > 150 µM
CC(CC1CCCCC1)NCc1ccccc1CS(=O)(=O)N[C@H]1C[C@@H](C(=O)O)C1 (stereo partly drawn) [B453, (1S,3S)-3-(((2-(((1-cyclohexylpropan-2-yl)amino)methyl)phenyl)methyl)sulfonamido)cyclobutane-1-carboxylic acid] | > 150 µM | 20 µM (≈ 8.45 µg/mL) | > 150 µM | > 150 µM
CC(CC1CCCCC1)NCc1ccccc1CS(=O)(=O)N[C@@H](C)C(=O)O (stereo partly drawn) [B454, ((2-(((1-cyclohexylpropan-2-yl)amino)methyl)benzyl)sulfonyl)-L-alanine] | > 150 µM | 91 µM (≈ 36.1 µg/mL) | > 150 µM | > 150 µM
CC(CC1CCCCC1)NCc1ccccc1CS(=O)(=O)N[C@H](C)C(=O)O (stereo partly drawn) [B455, ((2-(((1-cyclohexylpropan-2-yl)amino)methyl)benzyl)sulfonyl)-D-alanine] | > 150 µM | 91 µM (≈ 36.1 µg/mL) | > 150 µM | > 150 µM
CC(CC1CCCCC1)NCc1ccccc1CS(=O)(=O)N[C@H]1C[C@H](C(=O)O)C1 (stereo partly drawn) [B456, (1S,3S)-3-(((2-(((1-cyclohexylpropan-2-yl)amino)methyl)phenyl)methyl)sulfonamido)cyclobutane-1-carboxylic acid] | > 150 µM | 33 µM (≈ 13.9 µg/mL) | > 150 µM | > 150 µM
CC(CC1CCCCC1)NCc1ccccc1CS(=O)(=O)Nc1cccc(B(O)O)c1 (stereo not drawn) [B457, (3-(((2-(((1-cyclohexylpropan-2-yl)amino)methyl)phenyl)methyl)sulfonamido)phenyl)boronic acid] | 33 µM (≈ 14.7 µg/mL) | < 1 µM | 33 µM (≈ 14.7 µg/mL) | > 55 µM
CC(CC1CCCCC1)NCc1ccccc1OCc1ccccc1C(C)C (stereo not drawn) [B458, 1-cyclohexyl-N-(2-((2-isopropylbenzyl)oxy)benzyl)propan-2-amine] | 20 µM (≈ 7.59 µg/mL) | 4 µM (≈ 1.52 µg/mL) | > 150 µM | 10 µM (≈ 3.8 µg/mL)
COc1cccc(COc2ccccc2CNC(C)CC2CCCCC2)c1 (stereo not drawn) [B459, 1-cyclohexyl-N-(2-((3-methoxybenzyl)oxy)benzyl)propan-2-amine] | 91 µM (≈ 33.4 µg/mL) | 2 µM (≈ 0.735 µg/mL) | 55 µM (≈ 20.2 µg/mL) | 17 µM (≈ 6.25 µg/mL)
Cc1ccc(COc2ccccc2CNC(C)CC2CCCCC2)cc1 (stereo not drawn) [B460, 1-cyclohexyl-N-(2-((4-methylbenzyl)oxy)benzyl)propan-2-amine] | 33 µM (≈ 11.6 µg/mL) | < 1 µM | 33 µM (≈ 11.6 µg/mL) | 10 µM (≈ 3.52 µg/mL)
Cc1cccc(COc2ccccc2CNC(C)CC2CCCCC2)c1 (stereo not drawn) [B461, 1-cyclohexyl-N-(2-((3-methylbenzyl)oxy)benzyl)propan-2-amine] | 33 µM (≈ 11.6 µg/mL) | < 1 µM | 33 µM (≈ 11.6 µg/mL) | 10 µM (≈ 3.52 µg/mL)
CC(CC1CCCCC1)NCc1ccccc1OCc1ccccc1C1CC1 (stereo not drawn) [B462, 1-cyclohexyl-N-(2-((2-cyclopropylbenzyl)oxy)benzyl)propan-2-amine] | 33 µM (≈ 12.5 µg/mL) | 4 µM (≈ 1.51 µg/mL) | > 150 µM | 10 µM (≈ 3.78 µg/mL)
